# Strand notation (5' to 3'): a small letter for the sugar, then the base; units joined by * are phosphorothioate-linked, units joined directly phosphodiester-linked; [ ] holds rarer units or linkages, { } end groups; capitals alone tell only the bases. e = 2'-O-(2-methoxyethyl) (MOE); [5mC] = 5-methylcytosine; d = 2'-deoxy (DNA)
# Key:
# human PKK mRNA [1] = assay: Antisense inhibition of human PKK mRNA in HepaRG cells, 3,000 nM (Example 1); type: cell-based; settings: Table 4; HepaRG cells, electroporation with 3,000 nM antisense oligonucleotide, approx. 24 hours; PKK mRNA by RT-PCR (RTS3454), relative to untreated control cells
# Outline: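 HepaRG cells, 20,000 per well, were electroporated with 3,000 nM 5-10-5 MOE gapmer (phosphorothioate, 5-methylcytosine). After about 24 h, PKK mRNA was measured by qRT-PCR with primer probe set RTS3454 and normalised to RIBOGREEN total RNA. Values are percent inhibition versus untreated cells.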
# human PKK mRNA [2] = assay: Dose-dependent antisense inhibition of human PKK in HepaRG cells, 0.12-10.00 uM (Example 4); type: cell-based; settings: electroporation, ~16 h
# Outline: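 HepaRG cells (20,000/well) electroporated with antisense oligonucleotide at 0.12, 0.37, 1.11, 3.33 and 10.00 μM, ~16 h treatment. PKK mRNA by qRT-PCR (primer probe set RTS3454), normalised to RIBOGREEN total RNA. % inhibition versus untreated cells; IC50 derived.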
# [3] = Liver function markers in cynomolgus monkeys (Example 8); settings: cynomolgus monkey plasma, 40 mg/kg sc
# PKK protein [4] = assay: Plasma PKK protein levels in human KLKB1 transgenic mice (Example 7); type: in vivo; settings: transgenic mice
# Outline: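 Human KLKB1 transgenic mice dosed subcutaneously twice weekly for 3 weeks with antisense oligonucleotides at 2.5, 5.0, 10 or 20 mg/kg/week. Plasma collected 48 hours after the final dose; PKK protein expressed as percent inhibition relative to PBS-treated controls.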
# PKK protein [5] = assay: PKK protein in cynomolgus monkey plasma by ELISA (Example 8); type: in vivo; settings: 40 mg/kg sc
# Description: Approximately 0.9 mL of blood was collected each time from all available animals at pre-dose, day 17, day 31, day 45, day 59, and day 73, and placed in tubes containing 3.2% sodium citrate. The tubes were centrifuged (3000 rpm for 10 min at room temperature) to obtain plasma. PKK protein levels were measured in the plasma by ELISA. The results are presented in Table 52, expressed as percentage inhibition compared to the PBS control levels.
# [6] = Tolerability / clinical observation of cynomolgus monkeys (Example 8); type: in vivo, cynomolgus monkey; settings: primates, Example 8
# Description: Cynomolgus monkeys were treated with ISIS antisense oligonucleotides selected from studies described above. Antisense oligonucleotide efficacy and tolerability were evaluated. The human antisense oligonucleotides tested are cross-reactive with the rhesus genomic sequence (GENBANK Accession No. NW_001118167.1 truncated from nucleotides 2358000 to 2391000 and designated herein as SEQ ID NO: 18).
# During the study period, the monkeys were observed a minimum of once daily for signs of illness or distress. Any animal experiencing more than momentary or slight pain or distress due to the treatment, injury or illness was promptly reported to the responsible veterinarian and the Study Director. Any animal in poor health or in a possible moribund condition was identified for further monitoring and possible euthanasia. […] The protocols described in the Example were approved by the Institutional Animal Care and Use Committee (IACUC).
substance,measurement,setting,value
531231 (eT*eA*eT*e[5mC]*eA*d[5mC]*dT*dG*dT*dA*d[5mC]*dT*dA*dG*dT*eT*eT*e[5mC]*e[5mC]*eT) [compound 531231],% inhibition,human PKK mRNA [1],94%
same,percent inhibition of PKK at 0.12 μM,"human PKK mRNA [2]; Table 32, 0.12 μM",23%
same,percent inhibition of PKK at 0.37 μM,"human PKK mRNA [2]; Table 32, 0.37 μM",30%
same,percent inhibition of PKK at 1.11 μM,"human PKK mRNA [2]; Table 32, 1.11 μM",76%
same,percent inhibition of PKK at 3.33 μM,"human PKK mRNA [2]; Table 32, 3.33 μM",89%
same,percent inhibition of PKK at 10.00 μM,"human PKK mRNA [2]; Table 32, 10.00 μM",94%
same,IC50,"human PKK mRNA [2]; Table 32, PKK mRNA",600 nM
same,percent inhibition of PKK at 0.12 μM,"human PKK mRNA [2]; Table 33, 0.12 μM",18%
same,percent inhibition of PKK at 0.37 μM,"human PKK mRNA [2]; Table 33, 0.37 μM",0%
same,percent inhibition of PKK at 1.11 μM,"human PKK mRNA [2]; Table 33, 1.11 μM",36%
same,percent inhibition of PKK at 3.33 μM,"human PKK mRNA [2]; Table 33, 3.33 μM",76%
same,percent inhibition of PKK at 10.00 μM,"human PKK mRNA [2]; Table 33, 10.00 μM",84%
same,IC50,"human PKK mRNA [2]; Table 33, PKK mRNA",2000 nM
Tes Ges mCes Aes Aes Gds Tds mCds Tds mCds Tds Tds Gds Gds mCds Aes Aes Aes mCes Ae [ISIS 546254],ALT,[3],54 IU/L
same,AST,[3],68 IU/L
same,Albumin,[3],3.8 g/dL
same,human PKK protein inhibition,PKK protein [4]; 2.5 mg/kg/week s.c. twice a week for 3 weeks,0%
same,human PKK protein inhibition,PKK protein [4]; 5.0 mg/kg/week s.c. twice a week for 3 weeks,36%
same,human PKK protein inhibition,PKK protein [4]; 10 mg/kg/week s.c. twice a week for 3 weeks,51%
same,human PKK protein inhibition,PKK protein [4]; 20 mg/kg/week s.c. twice a week for 3 weeks,76%
same,PKK protein level reduction (%) in plasma relative to control levels,PKK protein [5]; Day 17,38%
same,PKK protein level reduction (%) in plasma relative to control levels,PKK protein [5]; Day 31,51%
same,PKK protein level reduction (%) in plasma relative to control levels,PKK protein [5]; Day 45,63%
same,PKK protein level reduction (%) in plasma relative to control levels,PKK protein [5]; Day 59,74%
same,PKK protein level reduction (%) in plasma relative to control levels,PKK protein [5]; Day 73,73%
same,tolerability in primates,[6],tolerable in primates
